From publication doi:10.1101/685669v2 (biorxiv, 2020)

Legend:
Test in all cases: fluorogenic peptidase assay
Type in all cases: biochemical
ecClpP [1] = target: T1, ecClpP (Escherichia coli, UniProt P0A6G7)
ecClpXP [2] = target: T2, ecClpXP (Escherichia coli, UniProt P0A6G7+P0A6H1); settings: 0.1 mM Suc-LY-AMC; competitive
ecClpP [3] = target: T1, ecClpP; remark: listed apart in the source
bsClpYQ = target: T3, bsClpYQ (Bacillus subtilis, UniProt P39070+P39778); settings: substrate Cbz-GGL-AMC, ATP present; competitive
T3 sequence (P39070 2-181): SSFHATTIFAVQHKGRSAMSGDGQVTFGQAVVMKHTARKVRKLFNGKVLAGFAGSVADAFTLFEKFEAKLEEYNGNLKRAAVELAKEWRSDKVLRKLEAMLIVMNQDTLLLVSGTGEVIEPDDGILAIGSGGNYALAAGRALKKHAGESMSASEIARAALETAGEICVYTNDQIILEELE
T3 sequence (P39778 1-467): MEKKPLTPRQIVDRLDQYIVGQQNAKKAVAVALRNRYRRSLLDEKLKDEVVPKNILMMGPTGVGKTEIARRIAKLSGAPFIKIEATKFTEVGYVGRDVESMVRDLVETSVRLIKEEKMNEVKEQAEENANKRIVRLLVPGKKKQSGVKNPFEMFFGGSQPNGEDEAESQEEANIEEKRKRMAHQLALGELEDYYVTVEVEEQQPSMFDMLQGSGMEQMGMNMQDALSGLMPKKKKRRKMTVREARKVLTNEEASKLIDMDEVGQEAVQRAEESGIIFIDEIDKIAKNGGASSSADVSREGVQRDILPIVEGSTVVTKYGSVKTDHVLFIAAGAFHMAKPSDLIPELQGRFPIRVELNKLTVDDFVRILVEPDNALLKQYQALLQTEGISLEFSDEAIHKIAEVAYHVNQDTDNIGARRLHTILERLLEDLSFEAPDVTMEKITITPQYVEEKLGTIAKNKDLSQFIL

ecClpXP [4] = target: T2, ecClpXP; settings: substrate Suc-LY-AMC; competitive

T1 sequence (P0A6G7 15-207): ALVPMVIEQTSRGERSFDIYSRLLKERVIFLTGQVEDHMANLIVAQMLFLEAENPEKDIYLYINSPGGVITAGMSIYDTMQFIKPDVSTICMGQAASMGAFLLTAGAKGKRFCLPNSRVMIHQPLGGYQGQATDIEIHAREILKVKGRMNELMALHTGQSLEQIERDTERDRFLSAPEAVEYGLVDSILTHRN
T2 sequence (P0A6G7 15-207): as above
T2 sequence (P0A6H1 2-424): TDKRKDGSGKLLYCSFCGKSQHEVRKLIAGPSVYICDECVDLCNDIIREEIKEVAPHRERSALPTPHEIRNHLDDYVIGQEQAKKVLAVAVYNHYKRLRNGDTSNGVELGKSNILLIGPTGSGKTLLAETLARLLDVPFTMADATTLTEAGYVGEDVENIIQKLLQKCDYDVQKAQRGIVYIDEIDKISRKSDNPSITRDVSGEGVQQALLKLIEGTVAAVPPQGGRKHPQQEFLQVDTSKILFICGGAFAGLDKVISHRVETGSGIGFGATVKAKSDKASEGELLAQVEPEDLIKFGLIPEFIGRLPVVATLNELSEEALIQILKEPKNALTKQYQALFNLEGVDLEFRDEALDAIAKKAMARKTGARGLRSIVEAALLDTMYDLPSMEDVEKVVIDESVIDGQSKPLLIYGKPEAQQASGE

- Ki (ecClpP [1]): 58.8 µM
- IC50 (ecClpXP [2]): 48.6 ± 1 µM
- IC50 (ecClpP [3]): 61 ± 1 µM
- Ki (bsClpYQ): 3.2 µM
- Ki (ecClpXP [4]): 36.7 µM
SMILES: CCCCCCc1c(O)c(Cl)cc2c1OC1(C2=O)C(Cl)=C(Cl)C(=O)N1C (racemic) [compound 1, 5-chloro-armeniaspirol A]
